Experimental findings from patent US10076519B2 (CYTOKINETICS, INC., priority 2010, dated 2018) are described below.

Each structure is given as a SMILES string.

For one assay, the system named is rabbit skeletal myofibrils (fast skeletal myofibrils). Put plainly: Activation of fast skeletal myofibrils (PUMA assay, PK/LDH-coupled ATPase at pCa25). To be noted: AC1.4 determined according to the procedure of Example 39; reported as class symbols. Type of assay: biochemical. Put shortly: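 ATPase activity of Triton-washed rabbit skeletal myofibrils, roughly 90% fast fibres, tracked by NADH loss at 340 nm through a PK/LDH-coupled ADP-regenerating system. Calcium set to 25% of maximal activity (pCa25), in PIPES 12 mM pH 6.8 with 2 mM MgCl2 and 1 mM DTT; AC1.4 reported.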
Consider `CC(C)(CNc1ccc(-c2ccc3[nH]ncc3c2)nn1)c1ncccc1F` [(6-(1H-indazol-5-yl)pyridazin-3-yl)[2-(3-fluoro(2-pyridyl))-2-methylpropyl]amine], for which the “Mean AC1.4” value is reported as “B (B=1-10 uM)”.

In the case of `COCCC(CNc1ccc(-c2cccc(C(N)=O)c2)nn1)c1ccccc1F` (stereo not shown) [3-(6-{[2-(2-fluorophenyl)-4-methoxybutyl]amino}pyridazin-3-yl)benzamide], the “Mean AC1.4” value is given as “D (D=>20 uM)”.

`NC(=O)c1cccc(-c2ccc(NCCc3cnccn3)nn2)c1` [3-{6-[(2-pyrazin-2-ylethyl)amino]pyridazin-3-yl}benzamide]: the “Mean AC1.4” value is listed as “D (D=>20 uM)”.

As to `CCOC(=O)CCc1ccc(NCC(C)(C)c2ccc(F)cc2)nn1` [ethyl 3-(6-{[2-(4-fluorophenyl)-2-methylpropyl]amino}pyridazin-3-yl)propanoate], the “Mean AC1.4” value is on record as “D (D=>20 uM)”.

For the compound `CC(C)(CNc1ccc(-c2cccc(C#N)c2)nn1)OCc1ccccc1`, the “Mean AC1.4” value is recorded as “D (D=>20 uM)”.

As for `NS(=O)(=O)c1cccc(-c2ccc(NCC3(c4ncccc4F)CCC3)nn2)c1`, the “Mean AC1.4” value is given as “A (A=<1 uM)”.

With `NC(=O)c1ccnc(C2(CNc3ccc(-c4ccc5[nH]ncc5c4)nn3)CCC2)c1`, the “Mean AC1.4” value is “C (C=10-20 uM)”.

On to `CC(C)(CNc1ccc(-c2cn[nH]c2)nn1)c1ccc(F)cc1` [[2-(4-fluorophenyl)-2-methylpropyl](6-pyrazol-4-ylpyridazin-3-yl)amine], for which the “Mean AC1.4” value is “B (B=1-10 uM)”.

`CC(C)(CNc1ccc(-c2ccc(O)cn2)nn1)c1ccc(F)cc1` [6-(6-{[2-(4-fluorophenyl)-2-methylpropyl]amino}pyridazin-3-yl)pyridin-3-ol]: the “Mean AC1.4” value was “A (A=<1 uM)”.

As to `CC(CNc1ccc(-c2cccc(C(N)=O)c2)nn1)N1CCCC1=O` (stereo not shown), the “Mean AC1.4” value is “D (D=>20 uM)”.

`NC(=O)c1cccc(-c2ccc(NCC3(c4ccccn4)CCC3)nn2)c1`: the “Mean AC1.4” value is “A (A=<1 uM)”.

Turning to `COc1cccnc1C1(CNc2ccc(-c3ccc4cn[nH]c4c3)nn2)CCC1` [(6-(1H-indazol-6-yl)pyridazin-3-yl){[(3-methoxy(2-pyridyl))cyclobutyl]methyl}amine], the “Mean AC1.4” value is “B (B=1-10 uM)”.

In the case of `CN(C)C(=O)n1nc(N)c2cc(-c3ccc(NCC(C)(C)c4ccc(F)cc4)nn3)ccc21` [[3-amino-5-(6-{[2-(4-fluorophenyl)-2-methylpropyl]amino}pyridazin-3-yl)(1H-indazolyl)]-N,N-dimethylcarboxamide], the “Mean AC1.4” value is given as “B (B=1-10 uM)”.

In the case of `CC(C)(CNc1ccc(-c2ccc3onc(N)c3c2)nn1)c1ccc(F)cc1` [[6-(3-aminobenzo[3,4-d]isoxazol-5-yl)pyridazin-3-yl][2-(4-fluorophenyl)-2-methylpropyl]amine], the “Mean AC1.4” value is listed as “B (B=1-10 uM)”.

Consider `CC(C)(CNc1ccc(C(=O)N2CCCCC2C(N)=O)nn1)c1ccc(F)cc1` (stereo not shown) [1-[(6-{[2-(4-fluorophenyl)-2-methylpropyl]amino}pyridazin-3-yl)carbonyl]piperidine-2-carboxamide], for which the “Mean AC1.4” value was “D (D=>20 uM)”.

Regarding `OCc1ccccc1-c1ccc(NCC2(c3ncccc3F)CCC2)nn1`, the “Mean AC1.4” value is listed as “B (B=1-10 uM)”.

Take `CC(C)(CNc1ccc(-c2ccc3[nH]nc(N)c3c2)nn1)c1ccc(F)cc1` [[6-(3-amino(1H-indazol-5-yl))pyridazin-3-yl][2-(4-fluorophenyl)-2-methylpropyl]amine]: the “Mean AC1.4” value is reported as “A (A=<1 uM)”.

Turning to `NC(=O)c1cccc(-c2ccc(NCCc3ccccc3Cl)nn2)c1`, the “Mean AC1.4” value is on record as “B (B=1-10 uM)”.

For `CC(C)(CNc1ccc(-c2cnc(N)nc2)nn1)c1ccc(F)cc1` [[6-(2-aminopyrimidin-5-yl)pyridazin-3-yl][2-(4-fluorophenyl)-2-methylpropyl]amine], the “Mean AC1.4” value was “B (B=1-10 uM)”.

For `Nc1nc(-c2ccc(NCC3(c4ncccc4F)CCC3)nn2)c[nH]1` [[6-(2-aminoimidazol-4-yl)pyridazin-3-yl]{[(3-fluoro(2-pyridyl))cyclobutyl]methyl}amine], the “Mean AC1.4” value was “D (D=>20 uM)”.

Consider `COc1ncccc1-c1ccc(NCC(C)(C)c2ccc(F)cc2)nn1` [[2-(4-fluorophenyl)-2-methylpropyl][6-(2-methoxy(3-pyridyl))pyridazin-3-yl]amine], for which the “Mean AC1.4” value is “A (A=<1 uM)”.

The assay is the same for the next values; noted with them: median AC1.4 class, procedure of Example 39.
Take `CC(=O)c1ccc(NCC2(c3ncccc3F)CCC2)nn1`: the “Mean AC1.4” value was “D (D=>20 uM)”.

With `NC(=O)c1cccc(-c2ccc(NC3(c4ccccc4)CCC3)nn2)c1`, the “Mean AC1.4” value is recorded as “B (B=1-10 uM)”.

In the case of `CC(C)(Nc1ccc(-c2ccc(N)nc2)nn1)c1ccccc1`, the “Mean AC1.4” value is given as “B (B=1-10 uM)”.

Consider `Fc1cccnc1C1(CNc2ccc(-c3ccc(NCC4(c5ncccc5F)CCC4)nn3)nn2)CCC1`, for which the “Mean AC1.4” value is given as “D (D=>20 uM)”.

For `NC(=O)c1cc(-c2ccc(NCC3(c4ncccc4F)CCC3)nn2)n[nH]1`, the “Mean AC1.4” value is listed as “B (B=1-10 uM)”.

On to `Fc1cccnc1C1(CNc2ccc(-c3ccccn3)nn2)CCC1` [{[(3-fluoro(2-pyridyl))cyclobutyl]methyl}(6-(2-pyridyl)pyridazin-3-yl)amine], for which the “Mean AC1.4” value is recorded as “B (B=1-10 uM)”.

With `NC(=O)Nc1ccc(-c2ccc(NC3(c4ccc(F)cc4)CCC3)nn2)cc1`, the “Mean AC1.4” value was “A (A=<1 uM)”.

Turning to `Fc1cccnc1-c1ccc(NCC2(c3ncccc3F)CCC2)nn1` [{[(3-fluoro(2-pyridyl))cyclobutyl]methyl}[6-(3-fluoro(2-pyridyl))pyridazin-3-yl]amine], the “Mean AC1.4” value is given as “B (B=1-10 uM)”.

`NS(=O)(=O)c1cnc(-c2ccc(NCC3(c4ncccc4F)CCC3)nn2)s1` [2-[6-({[(3-fluoro-2-pyridyl)cyclobutyl]methyl}ami-no)pyridazin-3-yl]-1,3-thiazole-5-sulfonamide]: the “Mean AC1.4” value was “B (B=1-10 uM)”.

Regarding `CC(C)(CNc1ccc(-c2ncc(CNC(=O)[C@@H]3CCCN3)s2)nn1)c1ncccc1F` [((2S)pyrrolidin-2-yl)-N-{[2-(6-{[2-(3-fluoro(2-pyridyl))-2-methylpropyl]amino}pyridazin-3-yl)(1,3-thiazol-5-yl)]methyl}carboxamide], the “Mean AC1.4” value is given as “B (B=1-10 uM)”.

Staying with this assay, now noted: median AC1.4 reported as class; procedure of Example 39.
For the compound `CC(C)(CNc1ccc(-c2ncc(CC(N)=O)s2)nn1)c1ncccc1Cl` [2-[2-(6-{[2-(3-chloro(2-pyridyl))-2-methylpropyl]amino}pyridazin-3-yl)-1,3-thiazol-5-yl]acetamide], the “Mean AC1.4” value is recorded as “B (B=1-10 uM)”.

Turning to `CNC(=O)c1cccc(-c2ccc(NC[C@]3(c4ncccc4F)C[C@H](F)C3)nn2)c1` [{3-[6-({[3-fluoro-1-(3-fluoro(2-pyridyl))cyclobutyl]methyl}ami-no)pyridazin-3-yl]phenyl}-N-methylcarboxamide], the “Mean AC1.4” value is “A (A=<1 uM)”.

On to `CC(C)[C@H](N)C(=O)N[C@H](C(=O)OCC(=O)NCc1cnc(-c2ccc(NCC3(c4ncccc4F)CCC3)nn2)s1)C(C)C` [[N-({2-[6-({[(3-fluoro-2-pyridyl)cyclobutyl]methyl}ami-no)pyridazin-3-yl]-1,3-thiazol-5-yl}methyl)carbamoyl]methyl (2S)-2-((2S)-2-amino-3-methylbutanoylamino)-3-methylbutanoate], for which the “Mean AC1.4” value is “A (A=<1 uM)”.

Regarding `O=c1cc(-c2ccc(NCC3(c4ncccc4F)CCC3)nn2)nc2cc[nH]n12` [5-[6-({[(3-fluoro-2-pyridyl)cyclobutyl]methyl}ami-no)pyridazin-3-yl]-8-hydro-3-pyrazolino[1,5-a]pyrimidin-7-one], the “Mean AC1.4” value was “B (B=1-10 uM)”.

In the case of `CNC(=O)Cc1cnc(-c2nnc(NCC3(c4ncccc4F)CCC3)cc2C)s1` [2-{2-[6-({[(3-fluoro(2-pyridyl))cyclobutyl]methyl}amino)-4-methylpyridazin-3-yl](1,3-thiazol-5-yl)}-N-methylacetamide], the “Mean AC1.4” value was “B (B=1-10 uM)”.

Take `O=C(N[C@H]1CCOC1)c1cccc(-c2ccc(NC[C@]3(c4ncccc4F)C[C@H](F)C3)nn2)c1` [N-((3S)oxolan-3-yl){3-[6-({[3-fluoro-1-(3-fluoro(2-pyridyl))cyclobutyl]methyl}ami-no)pyridazin-3-yl]phenyl}carboxamide]: the “Mean AC1.4” value is “B (B=1-10 uM)”.

On to `CC(=O)N1CCN(Cc2cnc(-c3ccc(NCC4(c5ncccc5F)CCC4)nn3)s2)CC1` [1-acetyl-4-({2-[6-({[(3-fluoro(2-pyridyl))cyclobutyl]methyl}ami-no)pyridazin-3-yl](1,3-thiazol-5-yl)}methyl)piperazine], for which the “Mean AC1.4” value is on record as “D (D=>20 uM)”.

Take `CC1(C)C(=O)NN=C1c1ccc(NCC2(c3ncccc3F)CCC2)nn1` [3-[6-({[(3-fluoro(2-pyridyl))cyclobutyl]methyl}ami-no)pyridazin-3-yl]-4,4-dimethyl-2-pyrazolin-5-one]: the “Mean AC1.4” value was “D (D=>20 uM)”.

Turning to `CC(C)(C#N)c1cnc(-c2ccc(NCC3(c4ncccc4F)CCC3)nn2)s1` [2-{2-[6-({[(3-fluoro(2-pyridyl))cyclobutyl]methyl}ami-no)pyridazin-3-yl](1,3-thiazol-5-yl)}-2-methylpropanenitrile], the “Mean AC1.4” value was “D (D=>20 uM)”.

In the case of `O=C(Nc1nccs1)c1ccc(NCC2(c3ncccc3F)CCC2)nn1` [[6-({[(3-fluoro(2-pyridyl))cyclobutyl]methyl}ami-no)pyridazin-3-yl]-N-(1,3-thiazol-2-yl)carboxamide], the “Mean AC1.4” value is on record as “A (A=<1 uM)”.

As to `COc1ccc(-c2ccc(NC[C@]3(c4ncccc4F)C[C@H](F)C3)nn2)cc1C(N)=O` [5-[6-({[3-fluoro-1-(3-fluoro(2-pyridyl))cyclobutyl]methyl}ami-no)pyridazin-3-yl]-2-methoxybenzamide], the “Mean AC1.4” value was “B (B=1-10 uM)”.

With `O=C(NC1CS(=O)(=O)C1)c1cccc(-c2ccc(NC[C@]3(c4ncccc4F)C[C@H](F)C3)nn2)c1` [N-(1,1-dioxothietan-3-yl){3-[6-({[3-fluoro-1-(3-fluoro(2-pyridyl))cyclobutyl]methyl}ami-no)pyridazin-3-yl]phenyl}carboxamide], the “Mean AC1.4” value was “B (B=1-10 uM)”.
